Assay results as given in US10385047B2, “Histone demethylase inhibitors” (CELGENE QUANTICEL RESEARCH, INC., priority 2014, dated 2019).

Assays:
JMJD2C = target: T1, JMJD2C (Homo sapiens, UniProt Q9H3R0); test: In vitro enzyme inhibition assay for JMJD2C activity (TR-FRET); type: biochemical
T1 construct: purchased BPS Bioscience 50105; host or cells: baculovirus expression system (insect cells)
T1 sequence (Q9H3R0 2-372): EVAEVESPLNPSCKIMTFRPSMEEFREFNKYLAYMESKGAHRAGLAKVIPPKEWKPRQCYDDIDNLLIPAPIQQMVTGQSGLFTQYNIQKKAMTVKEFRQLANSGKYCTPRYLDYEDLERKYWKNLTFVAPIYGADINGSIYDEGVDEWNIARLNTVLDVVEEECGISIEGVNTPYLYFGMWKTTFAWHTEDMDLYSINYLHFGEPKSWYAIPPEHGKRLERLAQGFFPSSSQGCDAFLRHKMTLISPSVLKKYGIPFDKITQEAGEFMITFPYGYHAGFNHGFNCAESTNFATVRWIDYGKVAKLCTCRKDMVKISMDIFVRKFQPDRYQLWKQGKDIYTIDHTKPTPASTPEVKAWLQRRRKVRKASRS
Experimental: This assay determines the ability of a test compound to inhibit JMJD2C demethylase activity. Baculovirus expressed JMJD2C (GenBank Accession #BC143571, AA 2-372) was purchased from BPS Bioscience (Cat#50105).
The ability of test compounds to inhibit the activity of JMJD2C was determined in 384-well plate format under the following reaction conditions: 0.3 nM JMJD2C, 300 nM H3K9me3-biotin labeled peptide (Anaspec cat #64360), 2 μM alpha-ketoglutaric acid in assay buffer of 50 mM HEPES, pH7.3, 0.005% Brij35, 0.5 mM TCEP, 0.2 mg/ml BSA, 50 μM sodium L-ascorbate, and 2 μM ammonium iron(II) sulfate. Reaction product was determined quantitatively by TR-FRET after the addition of detection reagent Phycolink Streptavidin-allophycocyanin (Prozyme) and Europium-anti-di-methylated histone H3 lysine 9 (H3K9me2) antibody (PerkinElmer) in the presence of 5 mM EDTA in LANCE detection buffer (PerkinElmer) at a final concentration of 50 nM and 1 nM, respectively.
The assay reaction was initiated by the following: 2 μl of the mixture of 900 nM H3K9me3-biotin labeled peptide and 6 μM alpha-ketoglutaric acid with 2 μl of 11-point serial diluted inhibitor in 3% DMSO were added to each well of the plate, followed by the addition of 2 μl of 0.9 nM JMJD2C to initiate the reaction. The reaction mixture was incubated at room temperature for 30 minutes, and terminated by the addition of 6 μl of 5 mM EDTA in LANCE detection buffer containing 100 nM Phycolink Streptavidin-allophycocyanin and 2 nM Europium-anti-H3K9me2 antibody. Plates were read by EnVisionMultilabel Reader in TR-FRET mode (excitation at 320 nm, emission at 615 nm and 665 nm) after 1 hour incubation at room temperature. A ratio was calculated (665/615) for each well and fitted to determine inhibition constant (IC50).

JMJD3 = target: T2, JMJD3 (Homo sapiens, UniProt O15054); test: In vitro enzyme inhibition assay for JMJD3 activity (TR-FRET); type: biochemical; details: enzymatic assay conditions described herein
T2 construct: purchased BPS Bioscience 50115; host or cells: baculovirus expression system (insect cells)
T2 sequence (O15054 1043-1682 isoform O15054-1): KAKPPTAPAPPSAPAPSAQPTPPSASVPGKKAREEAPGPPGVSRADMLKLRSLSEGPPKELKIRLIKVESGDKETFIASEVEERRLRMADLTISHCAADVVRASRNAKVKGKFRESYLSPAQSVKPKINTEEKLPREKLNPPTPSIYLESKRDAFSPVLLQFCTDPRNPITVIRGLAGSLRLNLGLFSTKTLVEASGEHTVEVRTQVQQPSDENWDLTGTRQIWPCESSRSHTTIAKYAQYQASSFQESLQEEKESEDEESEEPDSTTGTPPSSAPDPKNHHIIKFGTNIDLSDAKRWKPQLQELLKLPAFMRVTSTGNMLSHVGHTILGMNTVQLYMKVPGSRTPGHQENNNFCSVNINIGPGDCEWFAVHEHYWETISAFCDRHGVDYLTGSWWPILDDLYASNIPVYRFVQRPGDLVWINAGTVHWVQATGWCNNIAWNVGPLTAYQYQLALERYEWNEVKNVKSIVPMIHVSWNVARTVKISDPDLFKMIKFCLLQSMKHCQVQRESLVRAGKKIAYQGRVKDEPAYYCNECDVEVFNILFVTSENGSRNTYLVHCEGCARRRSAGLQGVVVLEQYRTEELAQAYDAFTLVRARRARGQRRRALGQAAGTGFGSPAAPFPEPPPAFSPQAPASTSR
Experimental: This assay determines the ability of a test compound to inhibit JMJD3 demethylase activity. Baculovirus expressed JMJD3 (GenBank Accession #NM-001080424, AA1043-end) was purchased from BPS Bioscience (Cat#50115).
The enzymatic assay of JMJD3 activity is based upon Time Resolved-Fluorescence Resonance Energy Transfer (TR-FRET) detection. […] Reaction product was determined quantitatively by TR-FRET after the addition of detection reagent Phycolink Streptavidin-allophycocyanin (Prozyme) and Europium-anti-di-methylated histone H3 lysine 27 (H3K27me2) antibody (PerkinElmer) in the presence of 5 mM EDTA in LANCE detection buffer (PerkinElmer) at a final concentration of 50 nM and 1 nM, respectively.
The reaction mixture was incubated at room temperature for 30 minutes, and terminated by the addition of 6 μL of 5 mM EDTA in LANCE detection buffer containing 100 nM Phycolink Streptavidin-allophycocyanin and 2 nM Europium-anti-H3K27me2 antibody. Plates were read by EnVisionMultilabel Reader in TR-FRET mode (excitation at 320 nm, emission at 615 nm and 665 nm) after 1 hour incubation at room temperature. A ratio from the readout of 665/615 was calculated for each well and fitted to determine inhibition constant (IC50).

[1] = 0.3 nM JMJD2C, H3K9me3-biotin peptide, 2 μM alpha-ketoglutaric acid
[2] = enzymatic assay conditions described herein

Row | IC50 (JMJD2C; [1]) | IC50 (JMJD3) | IC50 (JMJD2C; [2]) | Structure (SMILES)
1 | 100 to 1000 nM | – | – | C[C@H](O)c1ccc(N(C)c2ccc3c(c2)CCC[C@H]3CNc2cnccc2C(=O)O)cc1 (single isomer, unassigned) [Example 169]
2 | 100 to 1000 nM | – | – | C[C@@H](O)c1ccc(N(C)c2ccc3c(c2)CCC[C@H]3CNc2cnccc2C(=O)O)cc1 (single isomer, unassigned) [Example 168]
3 | – | 2150 nM | 150 nM | O=C(O)c1ccncc1NC[C@@H]1CCOc2cc(-c3ccccc3)ccc21 [Example 84 of U.S. Pat. No. 8,952,151, 3-({[(4R)-7-phenyl-3,4-dihydro-2H-1-benzopyran-4-yl]methyl}amino)pyridine-4-carboxylic acid]

Continued, molecule first:

Row | Structure (SMILES) | IC50 (JMJD2C; [1]) | IC50 (JMJD3) | IC50 (JMJD2C; [2])
4 | O=C(O)c1ccncc1NC[C@@H]1CCOc2cc(C3CCCCC3)ccc21 [Example 35, 3-({[(4R)-7-cyclohexyl-3,4-dihydro-2H-1-benzopyran-4-yl]methyl}amino)pyridine-4-carboxylic Acid] | 100 to 1000 nM | – | –
5 | O=C(O)c1ccncc1NC[C@H]1CCOc2cc(-c3ccccc3)ccc21 [Example 83 of U.S. Pat. No. 8,952,151, 3-({[(4S)-7-phenyl-3,4-dihydro-2H-1-benzopyran-4-yl]methyl}amino)pyridine-4-carboxylic acid] | – | 19 nM | 950 nM
